Test results: US20230303539A1, “IMMUNOREGULATORY COMPOUND AND ANTITUMOR APPLICATION THEREOF” (SHANGHAITECH UNIVERSITY, priority 2020, published 2023)

Experiments:
[1] = tested on: B lymphoma cells Daudi; experiment: Cell proliferation inhibition (cell viability, CCK-8) in Daudi; format: cell-based; conditions: Homo sapiens, 72 h treatment, CCK-8 cell viability
From the text: (§1) The tested cell lines used were: Multiple myeloma cell line MM.1S, human Burkitt's lymphoma cell line Daudi, human acute promyelocytic leukemia cell line NB4, human mantle cell lymphoma cell line JEKO-1, human B-cell lymphoma cell line SU-DHL-4, human mantle cell lymphoma cell line Mino, human diffuse large B-cell lymphoma cell line TMD8, human B-cell lymphoma cell line DOHH2, PBMCs cell and human diffuse large B-cell lymphoma cell line WSU-DLCL2, which were purchased from ATCC (American type Culture Collection) or Cell Bank/Stem Cell Bank, Chinese Academy of Sciences. The medium was RPMI1640 supplemented with 10% FBS (fetal calf serum) and 1% Penicillin-Streptomycin. The cells used were identified as correct cells by STR cells, and were negative for mycoplasma through routine inspections.
(§2) IC50 values of the compounds of the present disclosure (including the compounds in Table 1 and compounds of examples 1-23) were measured using Cell Titer Blue, Cell Titer GLO, or WST reagent from Promega Company. Assay details are as follows: Cells were seeded in 100 μL RPMI1640 medium containing serum at a density of 15,000 cells/well. After 24 h, the inoculated cells were treated with diluted commercial inhibitor and the compounds of the present disclosure to be tested after serial dilution. After the cells were treated with the compounds of the present disclosure to be tested for 72 h, cell viability was determined after adding the cell viability detection kit listed above according to the reagent operating instructions. The negative control was DMSO, and the positive control was a commercial inhibitor, both of which were used to treat the cells through the same method as that of the compounds of the present disclosure. The growth inhibition of the compounds of the present disclosure on cells was plotted by Prism Graphpad software, and the IC50 values of the compounds of the present disclosure were calculated therefrom.
(§3) We tested the activities of the compounds of the present invention (including the compounds in Table 1 and Examples 1-23 compounds) in multiple myeloma cancer cells MM.1S cell and B lymphoma cells Daudi through a dose-dependent manner. The cells were treated with the compounds of the present invention at 10 different successively decreasing concentrations (starting at the highest concentration of […]; 5-fold serial dilutions) for 72 h, and then the cell viability determination was performed in accordance with CCK-8 reagent operating instructions.

[2] = tested on: multiple myeloma cancer cells MM.1S; experiment: Cell proliferation inhibition (cell viability, CCK-8) in MM.1S; format: cell-based; conditions: Homo sapiens, MM1.S; MM.1S cells, 72 h treatment, CCK-8 cell viability
From the text: as §1, §2, §3

Row | SMILES | IC50 [1] | IC50 [2]
1 | Cc1nc2cccc(NCc3ccc4c(c3)OCO4)c2c(=O)n1C1CCC(=O)NC1=O (centres unmarked) [SIAIS264177, 3-(5-((benzo[d][1,3]dioxol-5-ylmethyl)amino)-2-methyl-4-oxoquinazolin-3(4H)-yl)piperidine-2,6-dione] | 222 ± 40.9 nM | 34.7 ± 5.29 nM
2 | Cc1nc2cccc(NCCc3ccccc3)c2c(=O)n1C1CCC(=O)NC1=O (centres unmarked) [SIAIS264103, 3-(2-methyl-4-oxo-5-(phenethylamino)quinazolin-3(4H)-yl)piperidine-2,6-dione] | 826 ± 37.3 nM | 87.3 ± 5.18 nM
3 | Cc1nc2cccc(NCc3ccccc3F)c2c(=O)n1C1CCC(=O)NC1=O (centres unmarked) [SIAIS264123, 3-(5-((2-fluorobenzyl)amino)-2-methyl-4-oxoquinazolin-3(4H)-yl)piperidine-2,6-dione] | 322 ± 22.1 nM | 57.5 ± 11.5 nM
4 | Cc1nc2cccc(NCc3ccc(CO)cc3)c2c(=O)n1C1CCC(=O)NC1=O (centres unmarked) [SIAIS313055, 3-(5-((4-(hydroxymethyl)benzyl)amino)-2-methyl-4-oxoquinazolin-3(4H)-yl)piperidine-2,6-dione] | 166 ± 14.7 nM | 36.4 ± 6.74 nM
5 | Cc1nc2cccc(NCc3ccc(CNC45CC6CC(CC(C6)C4)C5)cc3)c2c(=O)n1C1CCC(=O)NC1=O [SIAIS264156, 3-(5-((4-(((1R,3R,5S)-adamantan-1-ylamino)methyl)benzyl)amino)-2-methyl-4-oxoquinazolin-3(4H)-yl)piperidine-2,6-dione] | 44.8 ± 19.6 nM | 9.64 ± 0.83 nM
6 | Cc1nc2cccc(NCc3ccc(CNC4C5CC6CC(C5)CC4C6)cc3)c2c(=O)n1C1CCC(=O)NC1=O [SIAIS264172, 3-(5-((4-(((1R,2s,3S,5r)-adamantan-2-ylamino)methyl)benzyl)amino)-2-methyl-4-oxoquinazolin-3(4H)-yl)piperidine-2,6-dione] | – | 2.52 ± 0.68 nM

Further lines, results first:

Row | IC50 [1] | IC50 [2] | SMILES
7 | 139 ± 22 nM | 37.7 ± 12.1 nM | Cc1nc2cccc(NCc3ccc(CNC45CC6CC(CC(C6)C4)C5)cn3)c2c(=O)n1C1CCC(=O)NC1=O (centres unmarked) [SIAIS355068, 3-(5-(((5-(((adamantan-1-yl)amino)methyl)pyridin-2-yl)methyl)amino)-2-methyl-4-oxoquinazolin-3(4H)-yl)piperidine-2,6-dione]
8 | 129 ± 18.8 nM | 21.5 ± 5.84 nM | Cc1nc2cccc(NCc3ccc(CN4CCCCC4)cc3)c2c(=O)n1C1CCC(=O)NC1=O (centres unmarked) [SIAIS313069, 3-(2-methyl-4-oxo-5-((4-(piperidin-1-ylmethyl)benzyl)amino)quinazolin-3(4H)-yl)piperidine-2,6-dione]
9 | 131 ± 27.6 nM | 16.4 ± 2.82 nM | Cc1nc2cccc(NCc3ccc(CN4CC(C)CC(C)C4)cc3)c2c(=O)n1C1CCC(=O)NC1=O (centres unmarked) [SIAIS313075, 3-(5-((4-((3,5-dimethylpiperidin-1-yl)methyl)benzyl)amino)-2-methyl-4-oxoquinazolin-3(4H)-yl)piperidine-2,6-dione]
10 | 492 ± 33.2 nM | 83.7 ± 2.79 nM | Cc1nc2cccc(NCC3CCC(C(=O)NC45CC6CC(CC(C6)C4)C5)CC3)c2c(=O)n1C1CCC(=O)NC1=O (centres unmarked) [SIAIS313068, N-((3s,5s,7s)-adamantan-1-yl)-4-(((3-(2,6-dioxopiperidin-3-yl)-2-methyl-4-oxo-3,4-dihydroquinazolin-5-yl)amino)methyl)cyclohexanecarboxamide]
11 | 82.9 ± 25.9 nM | 5.61 ± 2.41 nM | Cc1nc2cccc(NCc3ccc(CNC45CC6CC(CC(C6)C4)C5)cc3F)c2c(=O)n1C1CCC(=O)NC1=O (centres unmarked) [SIAIS355049, 3-(5-((4-((adamantan-1-ylamino)methyl)-2-fluorobenzyl)amino)-2-methyl-4-oxoquinazolin-3(4H)-yl)piperidine-2,6-dione]
12 | 105 ± 19.9 nM | 22.1 ± 12 nM | Cc1nc2cccc(NCc3ccc(CN4CCCCCC4)cn3)c2c(=O)n1C1CCC(=O)NC1=O (centres unmarked) [SIAIS355062, 3-(5-(((5-(azepan-1-ylmethyl)pyridin-2-yl)methyl)amino)-2-methyl-4-oxoquinazolin-3(4H)-yl)piperidine-2,6-dione]
